Assays:
[1] = tested on: Candida albicans; test: Antimicrobial activity against Candida albicans at 5 to 10 uL; format: functional
[2] = tested on: L5178Y; test: Cytotoxicity against mouse L5178Y cells; format: functional; conditions: read-out: ED50 (the source's name)
[3] = tested on: Bacillus subtilis; test: Antimicrobial activity against Bacillus subtilis at 5 to 10 uL; format: functional
[4] = tested on: Staphylococcus aureus; test: Antimicrobial activity against Staphylococcus aureus at 5 to 10 uL; format: functional
[5] = tested on: Escherichia coli; test: Antimicrobial activity against Escherichia coli at 5 to 10 uL; format: functional
[6] = Toxicity in brine shrimp assessed as mortality at 20 ug/ml; format: organism-based; conditions: artemia, in vivo; read-out: Activity
[7] = tested on: HeLa; test: Cytotoxicity against human HeLa cells; format: functional; conditions: read-out: ED50 (the source's name)
[8] = tested on: PC-12; test: Cytotoxicity against rat PC12 cells; format: functional; conditions: read-out: ED50 (the source's name)
[9] = Toxicity in brine shrimp assessed as mortality at 50 ug/ml; format: organism-based; conditions: artemia, in vivo; read-out: Activity

| SMILES | inhibition zone (IZ) [1] | EC50 [2] | inhibition zone (IZ) [3] | inhibition zone (IZ) [4] | inhibition zone (IZ) [5] | mortality at 20 ug/ml [6] | EC50 [7] | EC50 [8] | mortality at 50 ug/ml [9] |
| --- | --- | --- | --- | --- | --- | --- | --- | --- | --- |
| CC[C@@H](C)[C@@H]1NC(=O)[C@H](C(C)C)NC(=O)[C@@H]2C[C@@H](O)CN2C(=O)[C@H]([C@@H](C)CC)N/C=C(\C(=O)N2CCC[C@H]2C(=O)N[C@H](C(=O)N[C@@H](Cc2ccccc2)C(=O)NCC(N)=O)[C@@H](C)CC)NC(=O)[C@H](CC(C)C)NC(=O)[C@@H]2CCCN2C(=O)[C@@H]2CCCN2C(=O)[C@H](CC(C)C)NC1=O [CALLYAERIN A] | 25 mm | 3.61 µM | 0 mm | 9 mm | 10 mm |  |  |  |  |
| CC[C@@H](C)[C@@H]1NC(=O)[C@H]([C@@H](C)CC)NC(=O)[C@@H]2C[C@@H](O)CN2C(=O)[C@H]([C@H](C)CC)N/C=C(\C(=O)N2CCC[C@H]2C(=O)N[C@H](C(=O)N[C@H](C(=O)O)[C@@H](C)CC)[C@@H](C)CC)NC(=O)[C@H](CC(C)C)NC(=O)[C@@H]2CCCN2C(=O)[C@@H]2CCCN2C(=O)[C@H](CC(C)C)NC1=O [CALLYAERIN B] | 15 mm | 4.14 µM | 0 mm | 11 mm | 7 mm | 15% | > 8 µM | > 8 µM | 35% |
| CC[C@@H]1NC(=O)[C@@H]2C[C@@H](O)CN2C(=O)[C@@H]2CCCN2C(=O)[C@H](Cc2ccccc2)NC(=O)[C@H]([C@H](C)CC)NC(=O)[C@H]([C@H](C)CC)N/C=C(\C(=O)N2CCC[C@H]2C(=O)N[C@H](C(=O)N[C@@H](CC(N)=O)C(=O)N[C@@H](C)C(=O)N[C@H](C(=O)O)[C@@H](C)CC)[C@@H](C)CC)NC(=O)[C@H](CC(C)C)NC1=O [CALLYAERIN D] | 0 mm | 3.03 µM | 12 mm | 0 mm | 0 mm |  |  |  |  |
| CC[C@H](C)[C@H](NC(=O)[C@@H](NC(=O)[C@@H]1CCCN1C(=O)/C1=C/N[C@@H](CC(C)C)C(=O)N2CCC[C@H]2C(=O)N[C@@H](Cc2ccccc2)C(=O)N[C@@H](Cc2ccccc2)C(=O)N2CCC[C@H]2C(=O)N2CCC[C@H]2C(=O)N[C@@H](C(C)C)C(=O)N1)[C@@H](C)CC)C(=O)NCC(=O)O [CALLYAERIN E] | 20 mm | 0.39 µM | 15 mm | 9 mm | 9 mm | 45% | 3.4 µM | 3.8 µM | 70% |
| CC[C@H](C)[C@H](NC(=O)[C@H](Cc1ccccc1)NC(=O)[C@H](CC(C)C)NC(=O)[C@@H]1CCCN1C(=O)/C1=C\N[C@@H](C(C)C)C(=O)N2CCC[C@H]2C(=O)N[C@@H](C(C)C)C(=O)N[C@@H](Cc2ccccc2)C(=O)N2CCC[C@H]2C(=O)N1)C(=O)O [CALLYAERIN F] | 0 mm | > 9 µM | 0 mm | 0 mm | 0 mm |  | > 9 µM | > 9 µM |  |
| CC(C)C[C@@H]1NC(=O)[C@@H]2CCCN2C(=O)[C@H]2CCCN2C(=O)[C@@H]2CCCN2C(=O)[C@@H]2CCCN2C(=O)[C@H](CC(C)C)N/C=C(\C(=O)N2CCC[C@H]2C(=O)N[C@@H](Cc2ccccc2)C(=O)N[C@@H](Cc2ccccc2)C(=O)N[C@@H](Cc2ccccc2)C(=O)O)NC1=O [CALLYAERIN G] |  | 0.41 µM |  |  |  |  | 4.43 µM | > 8 µM |  |
| CC[C@H](C)[C@H](NC(=O)[C@@H]1CCCN1C(=O)/C1=C\N[C@@H](C(C)C)C(=O)N2CCC[C@H]2C(=O)N[C@@H](C(C)C)C(=O)N[C@@H](Cc2ccccc2)C(=O)N2CCC[C@H]2C(=O)N2CCC[C@H]2C(=O)N[C@@H](CC(C)C)C(=O)N1)C(=O)O [CALLYEARIN H] |  | 0.48 µM |  |  |  | 30% |  |  | 55% |
